Measurements published in patent publication US6949558B2, “Enhancement of taxane-based chemotherapy by a CDK1 antagonist” (Yale University, priority 2001, dated 2005).

Columns and labels:
survivin promoter = assay: Survivin promoter-luciferase reporter expression in MCF-7 cells; type: cell-based, human; details: taxol 2 μM, all time intervals examined
Experimental: Luciferase activity was determined after 0-24 h incubation at 37° C. on a Lumat luminometer (LB9510), and normalized to β-galactosidase activity used as an internal control.
Luciferase values were normalized to β-galactosidase expression.

MCF-7 tumors = assay: Breast cancer xenograft model (Example 8); type: in vivo, CB17 SCID/beige mice; details: taxol alone 2.5 or 5 mg/kg, Purvalanol A alone 20 mg/kg, i.p.
Experimental: Breast Cancer Xenograft Model: All experiments involving animals were approved by the institutional animal cure and use committee. Six- to eight-week old female CB17 SCID/beige mice (Taconic Farms, Germantown, N.Y.) were injected s.c. into the flanks with 2.5×10^6 exponentially growing MCF-7 cells in 250 μl of sterile PBS, pH 7.4. […] Animals were injected i.p. with taxol alone (2.5 or 5 mg/kg), Purvalanol A alone (20 mg/kg) or the sequential combination of taxol-Purvalanol A for two consecutive days each divided by a day with no treatment. For single agent treatment, vehicle was given in place of taxol or Purvalanol A with the same schedule. Each complete cycle was separated by 2 d without treatment. Tumor volume was measured in the three dimensions with a caliper. Animals with tumor burden >3000 mm^3 were sacrificed (Survival).
Statistical Analysis: All in vitro experiments were repeated at least three times. […] The survival curves were compared using the log-rank test. This test generates a P value testing the null hypothesis that the survival curves are identical in the overall populations.

[1] = test system: survivin expression in HT2-19 cells; assay: Survivin expression by Western blotting in HT2-19 cells; type: cell-based; details: taxol 0.2 μM
Source text: Cell Cultures and Antibodies: Breast carcinoma MCF-7, prostate carcinoma PC3, and cervical carcinoma HeLa cells (American Type Culture Collection, Manassas, Va.) were maintained in culture according to the supplier's recommendations. HT2-19 cells with conditional inactivation of the p34^cdc2 gene were described previously (J. E. Itzhaki et al. (1997) Nat. Gen. 15: 258-265). In this cell line, removal of IPTG from the culture medium results in inactivation of the second p34^cdc2 allele (J. E. Itzhaki et al. (1997) Nat. Gen. 15: 258-265). For spindle checkpoint activation, the various cell types were treated with taxol (0.2-2 μM, Sigma Chemical Co., St. Louis, Mo.), vincristine (100 nM, Sigma) or cisplatin (3 μM, Sigma) for 16 h at 37° C. For genetic ablation of p34^cdc2, HT2-19 cells were washed and cultivated in the absence of IPTG for 48-72 h before analysis of apoptosis (see below) or expression of survivin or p34^cdc2, by Western blotting. In some experiments, taxol (0.2 μM) was added to HT2-19 cells simultaneously with the withdrawal of IPTG, and cells were processed as described above. […] For viral transduction, HT2-19 cells in the absence of IPTG were infected with pAd-GFP or pAd-Survivin at multiplicity of infection (m.o.i.) of 50, and analyzed after a 48-72 h culture for changes in cell cycle progression and apoptosis. […]

[2] = test system: p34^cdc2 kinase activity (MPM-2 epitope) in HeLa cells; assay: MPM-2 mitotic phosphoepitope expression (p34^cdc2 kinase activity) in HeLa cells; type: cell-based, human; details: HeLa; taxol 0.2 μM, sustained for a 32-h culture
[3] = test system: p34^cdc2 kinase activity (MPM-2 epitope) in MCF-7 cells; assay: MPM-2 mitotic phosphoepitope expression (p34^cdc2 kinase activity) in MCF-7 cells; type: cell-based, human
Experimental: MPM-2 Mitotic Phosphoepitope Expression: For detection of mitotic phosphoproteins (D. D. Vandre et al. (1989) J. Cell Sci. 94: 245-58), MCF-7 cells (1-2×10^5 cells/60 mm dish) were treated with taxol (2 μM), adriamycin (100 nM), 50 or 300 J/m^2 UVB irradiation and cultured for 0, 8, 16, 24 or 36 h at 37° C. Cells were fixed in 70% ethanol, labeled with MPM-2 antibody (6 μg/ml) followed by addition of goat anti-mouse FITC (Boehringer Mannheim) for 1 h at 22° C. in the presence of 5 μg/ml propidium iodide (PI) containing 50 μg/ml RNase A. Samples were analyzed on a FACScan (Becton Dickinson, Mountain View, Calif.), using CellQuest software.
MPM-2 Mitotic Phosphoepitope Expression: For detection of mitotic phosphoproteins (D. D. Vandre et al. (1989) J. Cell Sci. 94: 245-258), MCF-7 cells (1-2×10^5 cells/60 mm dish) were treated with taxol (0.2 μM), or vincristine (100 nM) for increasing time intervals (8-36 h) at 37° C. Cells were fixed in 70% ethanol, labeled with MPM-2 antibody (6 μg/ml; Upstate Biotechnology, Lake Placid, N.Y.) followed by addition of goat anti-mouse FITC (Boehringer Mannheim) for 1 h at 22° C. in the presence of 5 μg/ml propidium iodide containing 50 μg/ml RNAse A. Samples were analyzed on a FACScan (Becton Dickinson, Mountain View, Calif.), using CellQuest software. Data are expressed as %MPM-2 positive cells in the entire population.

CC(=O)O[C@H]1C(=O)[C@@]2(C)[C@H]([C@H](OC(=O)c3ccccc3)[C@]3(O)C[C@H](OC(=O)[C@H](O)[C@@H](NC(=O)c4ccccc4)c4ccccc4)C(C)=C1C3(C)C)[C@]1(OC(C)=O)CO[C@@H]1C[C@@H]2O [taxol, Paclitaxel]
survivin gene expression (promoter-luciferase) (survivin promoter): significantly inhibited survivin gene expression | kinetics of tumor growth (MCF-7 tumors): did not affect the kinetics of tumor growth | survivin expression ([1]; HT2-19 cells in the absence of IPTG (p34^cdc2 −/−)): only a minimally detectable increase in survivin expression | survivin levels ([1]; IPTG+ HT2-19 cells (p34^cdc2 +/−)): increased survivin levels | p34^cdc2 kinase activity [2]: elevated p34^cdc2 kinase activity | MPM-2 expression ([3]; taxol 2 μM (Example 7)): elevated MPM-2 expression | p34^cdc2 kinase activity (MPM-2 phosphoepitope expression) ([3]; taxol 0.2-2 μM (Example 8)): elevated p34^cdc2 kinase activity
